Laboratory results: patent publication US9216972B2, “Tricyclic heterocyclic compounds” (Bristol-Myers Squibb Company, priority 2009, dated 2015)

Key:
[1] = molecular target: S1P1 (membranes from S1P1/CHO cells) (Homo sapiens (Human), UniProt P21453); experiment: Receptor [35S] GTPγS Binding Assay, S1P1; assay type: biochemical; conditions: S1P1/CHO cell membranes; rounded to two digits
Protocol: (§1) Receptor [35S] GTPγS Binding Assays
(§2) Compounds were loaded in a 384 Falcon v-bottom plate (0.5 μl/well in a 11 point, 3-fold dilution). Membranes prepared from S1P1/CHO cells or EDG3-Ga15-bla HEK293T cells were added to the compound plate (40 μl/well, final protein 3 μg/well) with multidrop. [^35S]GTP (1250 Ci/mmol, Perkin Elmer) was diluted in assay buffer: 20 mM HEPES, pH7.5, 10 mM MgCl2, 150 mM NaCl, 1 mM EGTA, 1 mM DTT, 10 μM GDP, 0.1% fatty acid free BSA, and 10 μg/ml Saponin to 0.4 nM. 40 μl of the [^35S] GTP solution was added to the compound plate with a final concentration of 0.2 nM. The reaction was kept at room temperature for 45 min. At the end of incubation, all the mixtures in the compound plate were transferred to Millipore 384-well FB filter plates via the Velocity11 Vprep liquid handler. The filter plate was washed with water 4 times by using the manifold Embla plate washer and dried at 60° C. for 45 min. MicroScint 20 scintillation fluid (30 μl) was added to each well for counting on the Packard TopCount. EC50 is defined as the agonist concentration that corresponds to 50% of the Ymax (maximal response) obtained for each individual compound tested. The results in Table B were rounded to two digits.

[2] = molecular target: S1P3 (membranes from EDG3-Ga15-bla HEK293T cells) (Homo sapiens (Human), UniProt Q99500); experiment: Receptor [35S] GTPγS Binding Assay, S1P3; assay type: biochemical; conditions: EDG3-Ga15-bla HEK293T cell membranes; rounded to two digits
Chain of S1P3 (membranes from EDG3-Ga15-bla HEK293T cells) (Q99500 whole entry): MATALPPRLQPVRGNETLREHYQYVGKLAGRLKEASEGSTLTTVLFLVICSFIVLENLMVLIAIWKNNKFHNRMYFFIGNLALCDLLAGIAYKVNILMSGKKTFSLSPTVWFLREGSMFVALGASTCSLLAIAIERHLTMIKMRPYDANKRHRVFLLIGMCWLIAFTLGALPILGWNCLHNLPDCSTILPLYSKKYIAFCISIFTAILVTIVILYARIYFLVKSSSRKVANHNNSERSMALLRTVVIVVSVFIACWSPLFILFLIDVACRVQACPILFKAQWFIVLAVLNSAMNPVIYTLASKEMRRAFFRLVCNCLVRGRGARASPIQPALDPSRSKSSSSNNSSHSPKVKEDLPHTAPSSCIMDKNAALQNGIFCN
Protocol: as §1, §2

human S1P1 = human S1P1 (Homo sapiens (Human), UniProt P21453); experiment: S1P1 Binding Assay (33P-S1P radioligand competition); conditions: membranes from CHO cells expressing human S1P1; 0.03 nM 33P-S1P; rounded to two digits
Chain of human S1P1 (P21453 whole entry): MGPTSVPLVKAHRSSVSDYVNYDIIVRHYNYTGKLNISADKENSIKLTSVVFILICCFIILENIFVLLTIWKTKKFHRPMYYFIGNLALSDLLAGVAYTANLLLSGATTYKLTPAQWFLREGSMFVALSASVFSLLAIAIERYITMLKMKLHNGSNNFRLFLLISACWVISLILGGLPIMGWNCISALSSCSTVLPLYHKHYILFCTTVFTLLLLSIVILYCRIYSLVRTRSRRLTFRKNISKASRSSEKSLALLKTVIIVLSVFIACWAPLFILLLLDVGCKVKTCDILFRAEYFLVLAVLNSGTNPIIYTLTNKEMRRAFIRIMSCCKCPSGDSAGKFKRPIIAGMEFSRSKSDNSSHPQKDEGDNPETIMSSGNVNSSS
Protocol: Membranes were prepared from CHO cells expressing human S1P1. Cells pellets (1×10^8cells/pellet) were suspended in buffer containing 20 mM HEPES, pH 7.5, 50 mM NaCl, 2 mM EDTA and Protease Inhibitor cocktail (Roche), and disrupted on ice using the Polytron homogenizer. The homogenate was centrifuged at 20,000 rpm (48,000 g) and the supernatant was discarded. The membrane pellets were resuspended in buffer containing 50 mM HEPES, pH 7.5, 100 mM NaCl, 1 mM MgCl2, 2 mM EDTA and stored in aliquots at −80° C. after protein concentration determination.
Membranes (2 μg/well) and 0.03 nM final concentration of ^33P-S1P ligand (1 mCi/ml, American Radiolabeled Chemicals) diluted in assay buffer (50 mM HEPES, pH7.4, 5 mM MgCl2, 1 mM CaCl2, 0.5% fatty acid free BSA, 1 mM NaF) were added to the compound plates (384 Falcon v-bottom plate (0.5 μl/well in a 11 point, 3-fold dilution). Binding was performed for 45 minutes at room temperature, terminated by collecting the membranes onto 384-well Millipore FB filter plates, and radioactivity was measured by TopCount. The competition data of the test compounds over a range of concentrations was plotted as percentage inhibition of radioligand specific binding. The IC50 is defined as the concentration of competing ligand needed to reduce specific binding by 50%.

[3] = test system: circulating blood lymphocytes; experiment: Blood Lymphocyte Reduction Assay (BLR) in Rodents; assay type: in vivo; conditions: Lewis rats, oral, versus vehicle (PEG300) group
Protocol: Blood Lymphocyte Reduction Assay (BLR) in Rodents
Lewis rats were dosed orally with test article (as a solution or suspension in the vehicle) or vehicle alone (polyethylene glycol 300, “PEG300”). Blood was drawn at 4 hr and 24 h by retro-orbital bleeding. Blood lymphocyte counts were determined on an ADVIA 120 Hematology Analyzer (Siemens Healthcare Diagnostics). The results were measured as a reduction in the percentage of circulating lymphocytes as compared to the vehicle treated group at the 4 hr and 24 hr measurement. The results represent the average results of all animals within each treatment group (n=3-4).

Chain of S1P1 (membranes from S1P1/CHO cells) (P21453 whole entry): as above

Row | EC50 [1] | EC50 [2] | IC50 (human S1P1) | Compound | % Reduction in Lymphocytes at 4 hr. ([3]; dose 1.0 mg/kg) | % Reduction in Lymphocytes at 4 hr. ([3]; dose 3.0 mg/kg)
1 | 0.04 µM | > 63 µM | 0.022 µM | CC(N)(CO)CCc1ccc2c(c1)CCc1c-2noc1-c1noc(-c2ccccc2)c1C(F)(F)F (single isomer, unassigned) [Example 93, 2-amino-2-methyl-4-(3-(5-phenyl-4-(trifluoromethyl)isoxazol-3-yl)-4,5-dihydronaphtho[1,2-c]isoxazol-7-yl)butan-1-ol] | – | –
2 | 0.012 µM | 16.2 µM | 0.016 µM | CC(N)(CCc1ccc2c(c1)CCc1c-2noc1-c1noc(-c2ccccc2)c1C(F)(F)F)C(=O)O (single isomer, unassigned) [Example 94, 2-amino-2-methyl-4-(3-(5-phenyl-4-(trifluoromethyl)isoxazol-3-yl)-4,5-dihydronaphtho[1,2-c]isoxazol-7-yl)butanoic acid] | – | –
3 | 0.0017 µM | 8.5 µM | 0.0041 µM | N#CC1(NC(=O)[C@H](O)c2ccc3c(c2)CCc2c-3noc2-c2noc(-c3ccccc3)c2C(F)(F)F)CC1 (stereo in doubt) [Example 132, N-(1-cyanocyclopropyl)-2-hydroxy-2-(3-(5-phenyl-4-(trifluoromethyl)isoxazol-3-yl)-4,5-dihydronaphtho[1,2-c]isoxazol-7-yl)acetamide] | – | –
4 | 0.0012 µM | 8.2 µM | 0.0012 µM | CCCc1ccc(-c2onc3c2COc2cc(CN4CC(C(=O)O)C4)ccc2-3)cc1 [Example 2, 1-((3-(4-Propylphenyl)-4H-chromeno[4,3-c]isoxazol-7-yl)methyl)azetidine-3-carboxylic acid] | 65% | –
5 | 0.0013 µM | 1.3 µM | 0.0013 µM | CCCc1ccc(-c2noc3c2COc2cc(CN4CC(C(=O)O)C4)ccc2-3)cc1 [Example 3, 1-((3-(4-Propylphenyl)-4H-chromeno[3,4-d]isoxazol-7-yl)methyl)azetidine-3-carboxylic acid] | 85% | –
6 | 0.00074 µM | 1.5 µM | 0.00057 µM | CC(C)Cc1onc(-c2onc3c2CCc2cc(CN4CC(C(=O)O)C4)ccc2-3)c1C(F)(F)F [Example 5, 1-((3-(5-Isobutyl-4-(trifluoromethyl)isoxazol-3-yl)-4,5-dihydronaphtho[1,2-c]isoxazol-7-yl)methyl)azetidine-3-carboxylic acid] | 83% | –
7 | 0.00059 µM | 4.4 µM | 0.00066 µM | O=C(O)C1CN(Cc2ccc3c(c2)CCc2c-3noc2-c2noc(-c3ccccc3)c2C(F)(F)F)C1 [Example 6, 1-((3-(5-Phenyl-4-(trifluoromethyl)isoxazol-3-yl)-4,5-dihydronaphtho[1,2-c]isoxazol-7-yl)methyl)azetidine-3-carboxylic acid] | 86% | –
8 | 0.057 µM | > 31 µM | 0.057 µM | O=C(O)C1CN(Cc2ccc3c(c2)CCc2c-3noc2-c2onc(-c3ccccc3)c2C(F)(F)F)C1 [Example 7, 1-((3-(3-Phenyl-4-(trifluoromethyl)isoxazol-5-yl)-4,5-dihydronaphtho[1,2-c]isoxazol-7-yl)methyl)azetidine-3-carboxylic acid] | – | –
9 | 6.3 µM | > 31 µM | 0.39 µM | CCCc1ccc(-c2onc3c2CCc2cc(OC[C@H](O)CO)ccc2-3)cc1 [Example 12, (R)-3-(3-(4-Propylphenyl)-4,5-dihydronaphtho[1,2-c]isoxazol-7-yloxy)propane-1,2-diol] | – | –
10 | 0.011 µM | > 31 µM | 0.0067 µM | CC(C)Oc1ccc(-c2onc3c2CCc2cc(CN4CC(C(=O)O)C4)ccc2-3)cc1C(F)(F)F [Example 14, 1-((3-(4-Isopropoxy-3-(trifluoromethyl)phenyl)-4,5-dihydronaphtho[1,2-c]isoxazol-7-yl)methyl)azetidine-3-carboxylic acid] | – | –
11 | 0.024 µM | 11 µM | 0.024 µM | CC(C)Oc1ccc(-c2onc3c2CCc2cc(CNCCC(=O)O)ccc2-3)cc1C#N [Example 16, 3-((3-(3-Cyano-4-isopropoxyphenyl)-4,5-dihydronaphtho[1,2-c]isoxazol-7-yl)methylamine)propanoic acid] | – | –
12 | 0.22 µM | > 31 µM | 0.056 µM | CCCc1ccc(-c2noc3c2CCc2cc(CN4CC(C(=O)O)C4)ccc2-3)cc1 [Example 20, 1-((3-(4-Propylphenyl)-4,5-dihydronaphtho[2,1-d]isoxazol-7-yl)methyl)azetidine-3-carboxylic acid] | – | –
13 | 0.98 µM | > 63 µM | 0.98 µM | O=C(O)C1CN(Cc2ccc3c(c2)CCc2c-3n[nH]c2-c2onc(-c3ccccc3)c2C(F)(F)F)C1 [Example 22, 1-((3-(3-Phenyl-4-(trifluoromethyl)isoxazol-5-yl)-4,5-dihydro-2H-benzo[g]indazol-7-yl)methyl)azetidine-3-carboxylic acid] | – | –
14 | 0.00073 µM | 3.5 µM | 0.00098 µM | CC(C)Cc1ccc(-c2onc3c2CCc2cc(CN4CC(C(=O)O)C4)ccc2-3)cc1C(F)(F)F [Example 23, 1-((3-(4-Isobutyl-3-(trifluoromethyl)phenyl)-4,5-dihydronaphtho[1,2-c]isoxazol-7-yl)methyl)azetidine-3-carboxylic acid] | – | 76%
15 | 3.2 µM | > 31 µM | 3.2 µM | OCc1ccc2c(c1)CCc1c-2noc1-c1cccc(C(F)(F)F)c1 [Example 24, (3-(3-(Trifluoromethyl)phenyl)-4,5-dihydronaphtho[1,2-c]isoxazol-7-yl)methanol] | – | –
16 | 15 µM | > 63 µM | 15 µM | Oc1ccc2c(c1)CCc1c-2noc1-c1cc(-c2ccccc2)on1 [Example 32, 3-(5-Phenylisoxazol-3-yl)-4,5-dihydronaphtho[1,2-c]isoxazol-7-ol] | – | –
17 | 0.25 µM | > 31 µM | 0.25 µM | Oc1ccc2c(c1)CCc1c-2noc1-c1cc(-c2ccccc2Cl)n(-c2ccccc2)n1 [Example 33, 3-(5-(2-Chlorophenyl)-1-phenyl-1H-pyrazol-3-yl)-4,5-dihydronaphtho[1,2-c]isoxazol-7-ol] | – | –
18 | 1.6 µM | > 63 µM | 1.6 µM | CC(C)Cc1ccc(-c2onc3c2CCc2cc(O)ccc2-3)cc1 [Example 41, 3-(4-Isobutylphenyl)-4,5-dihydronaphtho[1,2-c]isoxazol-7-ol] | – | –
19 | 0.00032 µM | > 31 µM | 0.0016 µM | O=C(O)C1CN(Cc2ccc3c(c2)OCc2c-3noc2-c2onc(-c3ccccc3)c2C(F)(F)F)C1 [Example 61, 1-((3-(3-phenyl-4-(trifluoromethyl)isoxazol-5-yl)-4H-chromeno[4,3-c]isoxazol-7-yl)methyl)-azetidine-3-carboxylic acid] | – | –
20 | 0.00076 µM | 14.7 µM | 0.0056 µM | O=C(O)C1CN(Cc2cc3c(cc2F)-c2noc(-c4onc(-c5ccccc5)c4C(F)(F)F)c2CC3)C1 [Example 67] | – | –
21 | 0.049 µM | 4.66 µM | 0.022 µM | O=C(O)[C@H]1CCCN(Cc2ccc3c(c2)CCc2c-3noc2-c2noc(-c3ccccc3)c2C(F)(F)F)C1 [Example 70, (3S)-1-((3-(5-Phenyl-4-(trifluoromethyl)isoxazol-3-yl)-4,5-dihydronaphtho[1,2-c]isoxazol-7-yl)methyl)piperidine-3-carboxylic acid] | – | –
22 | 0.41 µM | > 63 µM | 0.6 µM | OCC1COCCN1Cc1ccc2c(c1)CCc1c-2noc1-c1noc(-c2ccccc2)c1C(F)(F)F (centres unmarked) [Example 74] | – | –
